15 compounds from patent US20230219978A1, “COMPOUND HAVING MACROCYCLIC STRUCTURE AND USE THEREOF” (SCINNOHUB PHARMACEUTICAL CO., LTD, priority 2020, published 2023) can be followed below.

A word on the IC50: it is the point on the concentration scale where inhibition reaches its midpoint.

What all share (assay type): biochemical
The target of assay [1] is T1, RET wt (Homo sapiens, UniProt P07949).
T1 construct: purchased Carna 08-159
Put plainly: In vitro kinase activity assay (mobility shift assay), RET wild type. The note with it: ATP 16 μM, reaction time 60 min. Summed up: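 Compounds: 10-point 3-fold series starting 1000 nM, preincubated 10 min RT with kinase; ATP + substrate then added, 30-240 min RT. Caliper conversion read, normalised to no-enzyme and no-compound controls, dose-response fit gives IC50.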

In assay [2] the target is T2, TRKa (Homo sapiens, UniProt P04629).
T2 construct: purchased Carna 08-186
T2 sequence (P04629 33-796): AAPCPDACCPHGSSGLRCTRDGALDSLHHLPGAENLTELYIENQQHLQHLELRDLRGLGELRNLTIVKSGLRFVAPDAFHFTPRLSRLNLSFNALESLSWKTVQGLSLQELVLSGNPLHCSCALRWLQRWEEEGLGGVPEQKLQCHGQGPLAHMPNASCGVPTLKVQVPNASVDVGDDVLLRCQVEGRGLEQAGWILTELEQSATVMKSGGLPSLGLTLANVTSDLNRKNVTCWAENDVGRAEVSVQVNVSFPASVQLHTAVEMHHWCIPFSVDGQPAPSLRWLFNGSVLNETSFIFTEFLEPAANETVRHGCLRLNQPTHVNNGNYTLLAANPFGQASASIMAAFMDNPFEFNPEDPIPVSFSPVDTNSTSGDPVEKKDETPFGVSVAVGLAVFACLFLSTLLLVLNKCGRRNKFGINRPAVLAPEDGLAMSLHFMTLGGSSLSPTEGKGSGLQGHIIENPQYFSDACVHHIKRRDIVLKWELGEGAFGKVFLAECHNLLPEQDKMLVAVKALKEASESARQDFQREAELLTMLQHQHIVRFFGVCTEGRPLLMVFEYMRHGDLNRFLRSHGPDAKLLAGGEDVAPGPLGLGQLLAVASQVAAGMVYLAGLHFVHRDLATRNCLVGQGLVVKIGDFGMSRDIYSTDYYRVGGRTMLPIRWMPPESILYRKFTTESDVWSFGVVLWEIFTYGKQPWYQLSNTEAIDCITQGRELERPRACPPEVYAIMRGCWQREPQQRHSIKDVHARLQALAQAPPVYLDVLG
Kind of assay: In vitro kinase activity assay (mobility shift assay), TRKa. Particulars: ATP 47.8 μM, reaction time 30 min. As for the experimental part:
(§1) The IC50 (half inhibitory concentration) values of the compounds were used as an indicator to evaluate the inhibitory effect of the compound on RET wild-type, RET mutant, TRKa, SRC, BTK and/or mutated BTK kinase.
(§2) Using the method of Mobility shift assay, the compounds were tested for inhibitory activity against the following kinases: RET wild type, RET mutant, TRKa, SRC, BTK and/or mutated BTK. The initial concentration of the test compound was 1000 nM, 3-fold dilution, 10 concentrations, detected in a well for each concentration.
(§3) 20 mM hydroxyethylpiperazineethanesulfonic acid (Hepes) (pH 7.5) buffer, 10 mM MgCl2, 1 mM ethylene glycol bis(aminoethyl ether)tetraacetic acid (EGTA), 0.02% polyoxyethylene lauryl ether (Brij35), 0.02 mg/ml […] (BSA), 0.1 mM Na3VO4, 2 mM dithiothreitol (DTT), 1% DMSO.
(§4) The test compounds were dissolved in 100% dimethyl sulfoxide (DMSO) system, and prepared as 10 mM for use, and stored in a nitrogen cabinet away from light.
(§5) • (1) Preparing 1× kinase reaction buffer. • (2) Preparation of compound concentration gradient: the initial concentration of the compounds was 1000 nM, which was diluted as 100-fold final concentration of solution in 100% dimethyl sulfoxide (DMSO) in a 384-well plate. The compound was accurately 3-fold diluted with the kinase buffer solution, 10 concentrations in total, and the final concentration was 0.0508 nM. The 100-fold final concentration of solution in 100% dimethyl sulfoxide (DMSO) was obtained by dilution in 384 source plate. The liquid separator Echo 550 was used to transfer 250 nl of 100-fold final concentration of compound to the target 384 well plate. 250 nl of DMSO was added to the positive and negative control wells. • (3) 2.5-fold final concentration of kinase solution was prepared by the 1× kinase buffer. • (4) 10 4, of 2.5-fold final concentration of kinase solution was added to the compound well and the positive control well, respectively; 10 4, of 1× kinase buffer was added to the negative control well. • (5) After centrifuging at 1000 rpm for 30 second, the reaction plate was shaken and mixed, followed by incubation at room temperature for 10 min. • (6) a mixed solution of 25/15-fold final concentration of adenosine triphosphate (ATP) and kinase substrate was prepared by 1× kinase buffer. • (7) The mixed solution (15 μL) of 25/15-fold final concentration of adenosine triphosphate (ATP) and substrate was added to initiate the reaction. • (8) 384-well plate was centrifuged at 1000 rpm for 30 second, shaken and mixed well, and then incubated at room temperature for 30-240 min. • (9) After stopping the kinase reaction, the plate was centrifugated at 1000 rpm for 30 second, shaken and mixed well. • (10)The conversion rate was read with Caliper EZ Reader.
(§6) wherein Conversion%_sample is the conversion rate reading of the sample; Conversion%_min: the mean value of negative control wells, representing the conversion rate reading of wells without enzymes; Conversion%_max: the mean value of positive control wells, representing the conversion rate reading of wells without compound inhibition.
(§7) The log value of concentration was taken as the X axis, and the percentage inhibition rate was taken as the Y axis. Graphpad 6.0 analysis software was used to fit the dose-response curve, so as to obtain the IC50 value of each compound on the enzyme activity

Assay [3] has as its target T3, BTK C481S (Homo sapiens, UniProt Q06187, C481S).
T3 construct: purchased Carna 08-547
Kind of assay: In vitro kinase activity assay (mobility shift assay), BTK C481S. Particulars: ATP 90 μM, reaction time 30 min. As for the experimental part: as §1, §2, §3, §4, §5, §6, §7

Assay [4] addresses T4, BTK (Homo sapiens, UniProt Q06187).
T4 construct: purchased Carna 08-180
Kind of assay: In vitro kinase activity assay (mobility shift assay), BTK. Particulars: ATP 71 μM, reaction time 30 min. As for the experimental part:
as §1, §2, §3, §4, §5, §6, §7

Assay [5] has as its target T5, RET G810R (Homo sapiens, UniProt P07949, G810R).
T5 construct: purchased Proqinase 1724-0000-1
Put plainly: In vitro kinase activity assay (mobility shift assay), RET G810R. The note with it: ATP 201 μM, reaction time 4 h. The procedure: as §1, §2, §3, §4, §5, §6, §7

The target of assay [6] is T6, RET V804M (Homo sapiens, UniProt P07949, V804M).
T6 construct: purchased signalchem R02-12GG
T6 sequence (P07949 29-1114 V804M): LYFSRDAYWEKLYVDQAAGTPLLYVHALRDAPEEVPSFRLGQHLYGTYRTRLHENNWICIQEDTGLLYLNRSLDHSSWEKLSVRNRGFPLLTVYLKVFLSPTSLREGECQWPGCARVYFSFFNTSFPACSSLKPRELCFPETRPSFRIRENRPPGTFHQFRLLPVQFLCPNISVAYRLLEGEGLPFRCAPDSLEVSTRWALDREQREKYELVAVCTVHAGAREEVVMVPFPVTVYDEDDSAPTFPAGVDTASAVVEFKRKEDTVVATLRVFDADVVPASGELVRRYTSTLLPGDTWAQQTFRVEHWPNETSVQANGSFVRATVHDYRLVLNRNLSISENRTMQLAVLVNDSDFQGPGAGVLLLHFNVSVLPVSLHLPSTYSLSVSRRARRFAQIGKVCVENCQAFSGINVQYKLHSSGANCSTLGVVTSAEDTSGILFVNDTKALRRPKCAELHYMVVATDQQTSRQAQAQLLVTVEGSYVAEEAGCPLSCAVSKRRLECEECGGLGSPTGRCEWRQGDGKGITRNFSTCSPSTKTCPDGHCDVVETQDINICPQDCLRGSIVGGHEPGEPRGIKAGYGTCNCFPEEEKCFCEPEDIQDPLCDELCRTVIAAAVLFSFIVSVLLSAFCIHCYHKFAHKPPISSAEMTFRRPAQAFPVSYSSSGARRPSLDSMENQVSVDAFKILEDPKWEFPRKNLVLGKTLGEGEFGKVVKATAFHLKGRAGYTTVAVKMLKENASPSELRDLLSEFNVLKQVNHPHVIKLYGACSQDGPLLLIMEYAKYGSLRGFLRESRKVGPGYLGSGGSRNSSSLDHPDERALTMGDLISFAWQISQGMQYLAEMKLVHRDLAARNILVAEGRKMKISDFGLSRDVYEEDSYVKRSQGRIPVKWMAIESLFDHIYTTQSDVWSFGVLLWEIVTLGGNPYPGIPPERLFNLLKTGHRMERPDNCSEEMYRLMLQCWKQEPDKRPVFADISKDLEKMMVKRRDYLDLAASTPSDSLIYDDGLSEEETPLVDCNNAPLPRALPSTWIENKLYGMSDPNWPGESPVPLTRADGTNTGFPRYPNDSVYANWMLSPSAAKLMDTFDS
Put plainly: In vitro kinase activity assay (mobility shift assay), RET V804M. The note with it: ATP 5.4 μM, reaction time 60 min. As for the experimental part:
as §1, §2, §3, §4, §5, §6, §7

A value given as a limit tells only on which side of the number the result lay.

T1 sequence (P07949 29-1114): as the sequence (P07949 29-1114 V804M) above, with M776V counted along it
T5 sequence (P07949 29-1114 G810R): as the sequence (P07949 29-1114 V804M) above, with M776V, G782R counted along it
T4 sequence (Q06187 whole entry): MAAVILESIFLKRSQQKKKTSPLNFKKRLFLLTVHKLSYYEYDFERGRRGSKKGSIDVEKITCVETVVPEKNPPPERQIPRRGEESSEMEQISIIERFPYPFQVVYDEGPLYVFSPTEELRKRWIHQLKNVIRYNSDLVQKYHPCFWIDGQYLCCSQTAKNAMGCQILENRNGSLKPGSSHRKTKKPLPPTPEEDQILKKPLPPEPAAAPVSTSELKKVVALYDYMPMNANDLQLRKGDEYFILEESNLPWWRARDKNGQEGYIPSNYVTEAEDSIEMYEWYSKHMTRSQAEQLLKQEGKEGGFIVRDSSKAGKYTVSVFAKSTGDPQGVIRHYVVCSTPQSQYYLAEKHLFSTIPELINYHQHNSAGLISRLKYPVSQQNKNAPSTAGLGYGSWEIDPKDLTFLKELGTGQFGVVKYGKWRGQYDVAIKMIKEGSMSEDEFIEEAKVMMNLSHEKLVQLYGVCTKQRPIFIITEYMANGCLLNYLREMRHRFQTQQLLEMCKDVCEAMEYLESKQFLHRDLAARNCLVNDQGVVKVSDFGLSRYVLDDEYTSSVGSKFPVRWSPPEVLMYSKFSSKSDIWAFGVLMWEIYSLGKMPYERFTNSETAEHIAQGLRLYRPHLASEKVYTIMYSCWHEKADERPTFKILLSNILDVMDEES
T3 sequence (Q06187 whole entry C481S): as the sequence (Q06187 whole entry) above, with C481S counted along it

For `C[C@H]1CNC(=O)c2cnn3cc(-c4cccc(Cl)c4)c(nc23)NCc2cc(F)cnc2O1` [Compound 3, (S, 1^3E, 1^4E)-1^6-(3-chlorophenyl)-4^5-fluoro-6-methyl-5-oxa-2,8-diaza-1(5,3)-pyrazolo[1,5-a]pyrimidina-4(3,2)-pyridinacyclononaphan-9-one], the concentration for half-maximal inhibition (IC50) in assay [1] is 22 nM; in assay [2], more than 10000 nM; in assay [3], 54.8 nM.
On to `C[C@H]1CNC(=O)c2cnn3cc(-c4ccc(Cl)cc4)c(nc23)NCc2cc(F)cnc2O1` [Compound 9, (S, 1^3E, 1^4E)-1^6-(4-chlorophenyl)-4^5-fluoro-6-methyl-5-oxa-2,8-diaza-1(5,3)-pyrazolo[1,5-a]pyrimidina-4(3,2)-pyridinacyclononaphan-9-one], for which the concentration for half-maximal inhibition (IC50) in assay [1] is 8.2 nM; in assay [2] it was more than 10000 nM; in assay [4], 25.9 nM; in assay [3], 13 nM.
The corresponding values for `C[C@H]1CNC(=O)c2cnn3cc(N4CCOCC4)c(nc23)NCc2cc(F)cnc2O1` [Compound 17, (S, 1^3E, 1^4E)-4^5-fluoro-6-methyl-1^6-morpholino-5-oxa-2,8-diaza-1(5,3)-pyrazolo[1,5-a]pyrimidina-4(3,2)-pyridinacyclononaphan-9-one] are more than 10000 nM, more than 10000 nM, more than 10000 nM and more than 10000 nM.
On the same counts, the results for `C[C@H]1CNC(=O)c2cnn3cc(-c4cnn(C)c4)c(nc23)NCc2cc(F)cnc2O1` [Compound 24] are 20 nM, more than 10000 nM, 296 nM and 398 nM.
Turning to `CC(C)OC(=O)Nc1ccc(-c2cn3ncc4c3nc2NCc2cc(F)cnc2O[C@@H](C)CNC4=O)c(Cl)c1` [Compound 45, iso-propyl 3-chloro-4-((S, 1^3E, 1^4E)-4^5-fluoro-6-methyl-9-oxo-5-oxa-aza-1(5,3)-pyrazolo[1,5-a]pyrimidin-4(3,2)-pyridinacyclononaphan-1^6-yl)phenyl) carbamate], the IC50 in assay [1] came to 3.9 nM; in assay [5] it was 70 nM; in assay [4], 346 nM; in assay [3] it was 42.4 nM.
On to `COC(=O)Nc1ccc(-c2c3nc4c(cnn4c2N)C(=O)NC[C@H](C)Oc2ncc(F)cc2CN3)cc1` [Compound 49, methyl (4-((S, 1^3E, 1^4E)-1^7-amino-4^5-fluoro-6-methyl-9-oxo-5-oxa-2,8-diaza-1(5,3)-pyrazolino [1,5-a]pyrimidin-4(3,2)-pyridinacyclononaphan-1^6-yl)-phenyl)carbamate], for which the IC50 in assay [1] is less than 0.51 nM; in assay [5], 9.3 nM; in assay [6], 1.3 nM; in assay [4], 9.2 nM; in assay [3], 15 nM.
For the compound `C[C@H]1CNC(=O)c2cnn3c(N)c(-c4ccc(F)cc4)c(nc23)NCc2cc(F)cnc2O1` [Compound 51, (S, 1^3E, 1^4E)-1^7-amino-1^6-(4-fluorophenyl)-4^5-fluoro-6-methyl-5-oxa-2,8-diaza-1(5,3)-pyrazolino[1,5-a]pyrimidin4(3,2)-pyridinacyclononaphan-9-one], the IC50 in assay [1] is 1.6 nM; in assay [4], 1 nM; in assay [3] it was 1.9 nM.
In the case of `C[C@H]1CNC(=O)c2cnn3c(N)c(-c4ccc5[nH]ccc5c4)c(nc23)NCc2cc(F)cnc2O1` [Compound 53, (S, 1^3E, 1^4E)-1^7-amino-4^5-fluoro-1^6-(1H-indo1-5-yl)-6-methyl-5-oxo-2,8-diaza-1(5,3)-pyrazolo[1,5-a]pyrimidin-4(3,2)-pyridinacyclononaphan-9-one], the 50% inhibitory concentration (IC50) in assay [1], in assay [5], in assay [4] and in assay [3] was more than 1000 nM each time.
Turning to `Nc1c(-c2ccccc2)c2nc3c(cnn13)C(=O)NCCOc1ncc(F)cc1CN2` [Example 65, (1^3E, 1^4E)-1^7-amino-4^5-fluoro-1^6-phenyl-5-oxa-2,8-diaza-1(5,3)-pyrazolino[1,5-a]pyrimidin-4(3,2)-pyridinacyclononaphan-9-one], the IC50 in assay [1] worked out at 2.1 nM; in assay [4], 3.5 nM; in assay [3], 6.6 nM.
For `Cc1nn2c(N)c(-c3ccccc3)c3nc2c1C(=O)NC[C@H](C)Oc1ncc(F)cc1CN3` [Example 74, (S, 1^3E, 1^4E)-1^7-amino-4^5-fluoro-1^2,6-dimethyl-1^6-phenyl-5-oxa-2,8-diaza-1(5,3)-pyrazolo[1,5-a]pyrimidinyl-4(3,2)-pyridinacyclononaphan-9-one], the half-maximal inhibitory concentration (IC50) is 323 nM in assay [1]; more than 1000 nM in assay [5]; more than 1000 nM in assay [6]; more than 1000 nM in assay [4]; more than 1000 nM in assay [3].
Take `C[C@H]1CN(C)C(=O)c2cnn3c(N)c(-c4ccccc4)c(nc23)NCc2cc(F)cnc2O1` [Example 75, (S, 1^3E, 1^4E)-1^7-amino-4^5-fluoro-6,8-dimethyl-1^6-phenyl-5-oxo-2,8-diaza-1(5,3)-pyrazolo[1,5-a]pyrimidin-4(3,2)-pyridinacyclononaphan-9-one]: the IC50 in assay [1] was 20 nM; in assay [5] it was more than 1000 nM; in assay [6] it was 311 nM; in assay [4] it was 22 nM; in assay [3] it was 52 nM.
The corresponding values for `C[C@H]1CNC(=O)c2c(Br)nn3c(N)c(-c4ccccc4)c(nc23)NCc2cc(F)cnc2O1` [Example 76, (S, 1^3E, 1^4E)-1^2-bromo-1^6-phenyl-1^7-amino-4^5-fluoro-6-methyl-5-oxa-2,8-diaza-1(5,3)-pyrazolo[1,5-a]pyrimidinyl-4(3,2)-pyridinacyclononaphan-9-one] are 922 nM, more than 1000 nM, more than 1000 nM, more than 1000 nM and more than 1000 nM.
On the same counts, the results for `C[C@H]1CNC(=O)c2c(C#N)nn3c(N)c(-c4ccccc4)c(nc23)NCc2cc(F)cnc2O1` [Example 77, (S, 1^3E, 1^4E)-1^2-cyano-1^6-phenyl-1^7-amino-4^5-fluoro-6-methyl-5-oxa-2,8-diaza-1(5,3)-pyrazolo[1,5-a]pyrimidinyl-4(3,2)-pyridinacyclononaphan-9-one] are more than 1000 nM, more than 1000 nM, more than 1000 nM, more than 1000 nM and more than 1000 nM.
On the same counts, the results for `Nc1c(-c2ccccc2)c2nc3c(cnn13)C(=O)NC1CCCC1Oc1ncc(F)cc1CN2` (stereo not shown) [Example 78, (6^3E, 6^4E)-6^7-amino-1^5-fluoro-6^6-phenyl-2-oxo-4,7-diaza-6(3,5)-pyrazolo[1,5-a]pyrimidin-1(2,3)-pyridin-3(1, 2)-cyclopentanacyclooctaphan-5-one] are 2.5 nM, 337 nM, 24 nM, 1.7 nM and 1.7 nM.
With `Nc1c(-c2ccccc2)c2nc3c(cnn13)C(=O)N1CCCC1COc1ncc(F)cc1CN2` (stereo not shown) [Example 79], the IC50 in assay [1] is 104 nM; in assay [5], more than 1000 nM; in assay [6], more than 1000 nM; in assay [4] it was 45 nM; in assay [3], 97 nM.
